Test results reported in publication PMC3552018 (Insect molecular biology, 2012).
pKd: −log10 of the molar value.

Target: T1, LUSH (Drosophila melanogaster, UniProt O02372)
T1 sequence (O02372 30-153): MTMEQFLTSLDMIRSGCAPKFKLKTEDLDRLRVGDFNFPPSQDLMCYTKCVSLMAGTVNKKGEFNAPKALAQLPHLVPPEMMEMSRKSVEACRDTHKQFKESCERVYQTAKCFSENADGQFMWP
Assay type: binding

pKd | SMILES
6.67 | CCC/C=C\C=C\CCCCCCCCCO [bombykol]
6.97 | CCCCCC/C=C\CCCCCCCCCCOC(C)=O [cVA, 11-cis vaccenyl acetate]
